From patent publication US4368194A, “Pharmacologically active amine boranes” (The United States of America as represented by the …, priority 1981, dated 1983)
Like-named read-outs stand apart in the source and are kept apart here.

Legend:
[1] = test system: carrageenan induced edema in mouse foot pads; assay: Anti-inflammatory screen (carrageenan induced foot edema); type: in vivo, mice; conditions: for Anti-inflammatory Screen: mice
Protocol: CF1 male mice (about 30 g) were administered test drugs at 10 mg/kg in 0.05% polysorbate .80-water intraperitoneally 3 hr and 30 min prior to 0.05 ml of 2% carrageenan in 0.9% saline injected into the plantar surface of the right hind foot. Saline injected into the left hind foot served as a base line. After 3 hr, both feet were excised at the tibiotarsal (ankle) joint according to the modified (Roszkowski et al., J. Pharm. Exp. Ther., 179, 114 1971) method of Winter, resulting in an 87 mg net increase in the weight of the control animals' feet.

Acid phosphatase [2] = assay: Lysosomal free acid phosphatase activity, liver homogenate; type: biochemical, rats; conditions: 5 μmoles, in vitro; 20 min
Protocol: (§1) Lysosomal enzymatic assays - Sprague Dawley rats (about 160 g) were sacrificed, the liver excised, and a 10% homogenate (4x) in 0.25 M sucrose and 0.001 M (ethylenedinitrilo) tetra acetic acid, ph 7.2 was prepared.
(§2) Acid phosphatase activity (Gianetto et al., Biochem J., 59, 433 1955) was carried out by incubating with 0.1 Mβ-glycerol phosphate in 0.1 M acetate, pH 5.0 with 5 μmoles of test drugs in 1% carboxymethylcellulose (CMC) for 20 min with liver homogenate and 60 min with resuspended PMNs. Lysosome enzymes were released by 0.02% alkyl phenoxy polyethoxy ethanol-100 to obtain the total enzymatic activity. The reaction was stopped with 10% trichloroacetic acid and the solution centrifuged. Aliquots of the supernatant were assayed for inorganic phophate content by the method of Chen et al., Anal Chem., 28, 1756 (1956). Percent free acid phosphatase was calculated. Cathepsin activity was determined in an analagous manner except the substrate used was 2% azocasein (Schleuning et al., Methods in Enzymology, XLV, 330 1976) in 0.1 M acetate buffer pH 5.0. The supernatant was assayed for acid soluble peptide fragments at 366 nm. Percent free cathepsin activity was calculated.

Cathepsin [3] = assay: Lysosomal free cathepsin activity, liver homogenate; type: biochemical, rats; conditions: 5 μmoles; for Liver % Free Cathepsin Activity, pH5: in vitro, 20 min
Protocol: as §1, §2

Acid phosphatase [4] = assay: Lysosomal free acid phosphatase activity, PMNs; type: cell-based; conditions: 5 μmoles; for PMNs % Free Acid Phosphatase Activity, pH5: in vitro, 60 min
Protocol: (§3) Polymorphonuclear neutrophils (PMNs) were collected from the peritoneal cavity four hr after the injection of 35 ml of 0.5% oyster glycogen in isotonic saline (Orange et al., J. Exp. Med., 127, 767 1968). The PMNs were centrifuged down at 800 g for 20 min, washed, and resuspended in minumen essential medium (MEM) with 10% fetal calf serum pH 7.4.
as §2

Cathepsin [5] = assay: Lysosomal free cathepsin activity, PMNs; type: cell-based; conditions: 5 μmoles; for PMNs % Free Cathespin Activity, pH5: in vitro, 60 min
Protocol: as §3, §2

cAMP levels in PMNs = assay: Cyclic-3',5'-adenosine monophosphate levels (cAMP) in PMNs; type: cell-based; conditions: 1 h
Protocol: as §3
Isolated PMNs were incubated with test drugs at 5μ moles for 1 hr at 37° C. in MEM at pH 7.4. The reaction was stopped with 6% trichloroacetic acid. The cyclic-3',5'-adenosine monophosphate levels were determined by the radioimmunoassay of Gilman, Proc. Natl. Acad. Sci. (USA), 67, 305 (1970), using 3H(G)-cyclic-3',5'-adenosine monophosphate (39.8 Cu/m mol). Results were calculated in p mole/10^7 PMNs cells.

[6] = biological target: T1, prostaglandin synthetase from beef seminal vesicle (Bos taurus, UniProt O62664); assay: Prostaglandin synthetase activity; type: biochemical; conditions: 10^-6 M; for activity at 1 µM: 1 h, read-out: Prostaglandin Synthesis
T1 construct: purchased; host or cells: beef seminal vesicle
T1 sequence (O62664 25-600): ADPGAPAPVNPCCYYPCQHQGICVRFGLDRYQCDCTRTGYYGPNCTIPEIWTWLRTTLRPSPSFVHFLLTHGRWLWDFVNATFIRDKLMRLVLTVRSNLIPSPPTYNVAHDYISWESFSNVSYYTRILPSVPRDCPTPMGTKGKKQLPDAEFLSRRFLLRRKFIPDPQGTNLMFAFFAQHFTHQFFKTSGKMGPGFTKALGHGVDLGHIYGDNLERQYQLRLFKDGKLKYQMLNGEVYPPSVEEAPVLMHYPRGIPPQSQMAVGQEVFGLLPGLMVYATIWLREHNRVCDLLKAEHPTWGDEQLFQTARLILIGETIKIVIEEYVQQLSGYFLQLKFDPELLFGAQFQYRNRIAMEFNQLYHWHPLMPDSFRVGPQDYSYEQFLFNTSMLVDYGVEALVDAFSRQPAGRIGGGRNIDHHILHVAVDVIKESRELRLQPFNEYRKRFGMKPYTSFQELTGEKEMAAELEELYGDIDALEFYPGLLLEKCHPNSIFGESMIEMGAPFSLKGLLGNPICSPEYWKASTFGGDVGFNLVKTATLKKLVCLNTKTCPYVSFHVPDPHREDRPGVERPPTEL
Protocol: After 1 hr at 37° C. the reaction was stopped with 1 N HCl and extracted with ethyl ether and evaporated. […] The plates were dried and developed in iodine vapor and with the use of prostaglandin standards the appropriate areas were scraped and counted for ^3 H content. Indometacin was used as a standard at 10^-4 M concentration. Test drugs were used at 10^-6 M.

liver mitochondria [7] = assay: Oxidative phosphorylation, succinate as substrate; type: biochemical, rats; conditions: 5 μmoles; for Oxidative Phosphorylation Succinate State 3: ADP stimulated respiration; for Oxidative Phosphorylation Succinate State 4: basal respiration
Protocol: (§4) Basal and adenosine diphosphate stimulated respiration on 10% liver homogenates was measured using succinate or αketoglutarate as substrate. See Glatt, et al., supra. The reaction vessel contained sucrose 55μ moles, KCl 22μ moles, K2 HPO4 22μ moles, test compounds at 5μ moles in 1% CMC and sodium succinate 90μ moles or αketoglutarate 60μ moles in a total volume of 1.8 ml. […] The rate of respiration was calculated at μl of O2 consumed/hr/mg wet weight of liver.

liver mitochondria [8] = assay: Oxidative phosphorylation, α-ketoglutarate as substrate; type: biochemical, rats; conditions: 5 μmoles; for Oxidative Phosphorylation α Ketoglutarate State 3: ADP stimulated respiration; for Oxidative Phosphorylation α Ketoglutarate State 4: basal respiration
Protocol: as §4

in vivo = conditions: mouse
CF1 male mice = assay: Writhing reflex (acetic acid); type: in vivo; conditions: for Writhing Reflex: 20 mg/kg intraperitoneally, mice
Protocol: CF1 male mice were administered test drugs at 20 mg/kg intraperitoneally 20 min (see Hendershat et al., J. Pharmacol Exp. Ther. 125, 237 1959) prior to the administration of 0.5 ml of 0.6% acetic acid (Vingar et al., European J. PHarmacol, 37, 23 1976). After 5 min the number of stretches, characterized by repeated contractures of the abdominal musculature accompanied by extension of the hind limbs, was counted for the next 10 min. The control mice had 78 stretch reflexes per 10 min.

[9] = pH 7.4, 5 μmoles, in vitro, read-out: PMNs cAMP Level

Structure (SMILES) | Anti-inflammatory Screen ([1]; 10 mg/kg × 2 intraperitoneally) [% Control] | Liver % Free Acid Phosphatase Activity, pH5 (Acid phosphatase [2]) [% Control] | Liver % Free Cathepsin Activity, pH5 (Cathepsin [3]) [% Control] | PMNs % Free Acid Phosphatase Activity, pH5 (Acid phosphatase [4]) [% Control] | PMNs % Free Cathespin Activity, pH5 (Cathepsin [5]) [% Control] | activity at 5 µmol (cAMP levels in PMNs; [9]) [%] | activity at 1 µM [6] [%] | Oxidative Phosphorylation Succinate State 3 (liver mitochondria [7]) [% Control] | Oxidative Phosphorylation Succinate State 4 (liver mitochondria [7]) [% Control] | uncoupling with α-ketoglutarate as substrate (liver mitochondria [8]) | Oxidative Phosphorylation α Ketoglutarate State 3 (liver mitochondria [8]) [% Control] | Oxidative Phosphorylation α Ketoglutarate State 4 (liver mitochondria [8]) [% Control] | LD50 (in vivo) [mg/kg] | Writhing Reflex (CF1 male mice) [% Control] | inhibition of PMN cathepsin activity (Cathepsin [5]) | further results
[BH3-][NH2+]C(C)(C)C [Compound I, (CH3)3 CNH2.BH3] | 41 | 77 ± 4 | 58 ± 5 | 100 ± 9 | 100 ± 4 | 58 | 100 ± 3 | 63 ± 8 | 118 ± 11 | uncoupling | 63 ± 14 | 160 ± 35 | 16 |  |  | inhibition of the carrageenan induced edema in mouse foot pads ([1]; text summary of Table II): at least 50%
[BH3-][N+](C)(C)C [Compound III, (CH3)3 N.BH3] | 65 | 72 ± 6 | 17 ± 4 | 57 ± 4 | 18 ± 3 | 145 | 61 ± 3 | 56 ± 12 | 117 ± 11 |  | 28 ± 10 | 71 ± 8 | 740 | 47 | at least 82% | inhibition of free proteolytic cathepsin activity of liver (Cathepsin [3]): at least 75%; inhibition of free acid phosphatase activity in PMNs (Acid phosphatase [4]): 43%; activation at 5 µmol (cAMP levels in PMNs; in vitro incubation, 5 μmoles, read-out: increase of cyclic adenosine monophosphate levels in PMNs): 45%; inhibition at 1 µM ([6]; read-out: inhibition of prostaglandin synthesis): > 30%; both states 3 and 4 respiration with α-ketoglutarate (liver mitochondria [8]): inhibited
CCNC(=O)[BH2-][N+](C)(C)C [VII, (CH3)3 N.BH2 CON(H)CH2 CH3] | 63 | 78 ± 7 |  | 100 ± 2 | 22 ± 5 | 98 | 100 ± 7 | 74 ± 9 | 114 ± 13 | uncoupling | 45 ± 18 | 113 ± 37 | 320 | 29 |  | inhibition of the writhing reflex (CF1 male mice; text summary of Table II): 70%
CCNC(=O)[BH2-][N+](C)(C)CC[N+](C)(C)[BH2-]C(=O)NCC [XIII, N,N,N^1,N^1 -Tetramethylethylenediamine-bis(N-ethylamidoborane)] | 65 | 74 ± 4 |  | 100 ± 7 | 70 ± 6 | 92 | 100 ± 4 | 66 ± 8 | 117 ± 8 | uncoupling | 50 ± 24 | 162 ± 43 | > 1000 | 55 |  | 
O=C(O)[BH2-][n+]1ccccc1 [XVI, Pyridine-carboxyborane] |  | 77 ± 8 | 58 ± 4 | 100 ± 5 | 31 ± 4 |  | 76 ± 5 | 75 ± 15 | 110 ± 13 |  | 63 ± 15 | 109 ± 30 |  | 53 |  | Anti-inflammatory Screen ([1]; 1/3 dose (of 10 mg/kg × 2)): 74 % Control; activity at 5 µmol (cAMP levels in PMNs; pH 7.4, read-out: PMNs cAMP Level): 100%
CCOC(=O)[BH2-][N+](C)(C)C [XVIII, (CH3)3 N.BH2 COOCH2 CH3] | 87 |  |  |  | 16 ± 3 |  |  | 61 ± 19 | 119 ± 18 |  | 54 ± 8 | 126 ± 51 | > 500 | 106 | at least 82% | 
